Data as given in patent US20180148470A1, “CHOLIC ACID DERIVATIVE, AND PREPARATION METHOD AND MEDICAL USE THEREOF” (Jiangsu Hansoh Pharmaceutical Group Co., Ltd., priority 2015, published 2018).

Tests used:
[1] = target: T1, FXR receptor (Homo sapiens, UniProt Q96RI1); assay: FXR receptor binding activity assay (TR-FRET; GST-FXR-LBD / SRC1 fragment); assay type: biochemical; settings: FXR-LBD binding to SRC1 fragment, agonist rate
T1 construct: Prepared 2× GST-labeled FXR-LBD/anti-GST Eu mixture to the required volume, the concentration of GST-FXR-LBD was 6 nM; purchased Life Technology Invitrogen PV4835
T1 sequence (Q96RI1 262-486 limits assumed): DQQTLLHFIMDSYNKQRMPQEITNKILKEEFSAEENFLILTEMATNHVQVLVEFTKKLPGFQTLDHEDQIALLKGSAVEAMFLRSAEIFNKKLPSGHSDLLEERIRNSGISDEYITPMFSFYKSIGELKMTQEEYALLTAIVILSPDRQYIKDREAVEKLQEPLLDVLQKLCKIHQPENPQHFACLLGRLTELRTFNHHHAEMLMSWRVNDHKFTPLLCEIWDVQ
T1 sequence (Q15788 676-700 partner limits assumed): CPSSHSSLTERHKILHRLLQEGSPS
Description: FXR Receptor Binding Activity Assay (Time-Resolved Fluorescence Detection Method TR-FRET Method)
To test the effect of the present compounds on FXR receptor binding, we selected the commercial FXR receptor binding activity assay kit to test the effect of the compounds on FXR and its binding protein fragments (LBD structural domain binds to SRC1 fragment) (kit supplier: Life Technology Invitrogen Catalog: PV4835; cisbio Catalog: 610SAXLA and 61GSTKLA). Specific method was described in the kit instructions. The operation was as follows:
1. Prepared 2× GST-labeled FXR-LBD/anti-GST Eu mixture to the required volume, the concentration of GST-FXR-LBD was 6 nM, Eu was 50 nL/well.
2. Prepared 2× biotin-labeled SRC1/[…] (SA-APC) mixture to the required volume, the concentration of SRC1 was 1000 nM, and […] was 50 nL/well.
3. 2× GST-FXR/Eu and SRC1/SA-APC were mixed in a proportion of 1:1.
4. 20 μL of a mixture of GST-FXR/Eu and SRC1/SA-APC was added to a 384-well plate containing the compounds to be tested.
5. Centrifuged for 1 minute at 1000 rpm; incubated for 180 minutes at room temperature.
6. Time-resolved fluorescence detection: EnVision reader.
(1) the value at 665 nm divided by the value at 615 nm;
(2) calculating the agonist rate
Agonist rate=(X−Min)/(Max−Min)*100% • X represents the 665/615 value for each concentration; • Min represents the 665/615 value without adding compound; • Max represents the 665/615 value of the reference compound.

[2] = target: T2, FXR (Homo sapiens, UniProt Q96RI1); assay: FXR reporter gene expression test (dual luciferase, FXR Gal4 reporter in HepG2 cells); assay type: cell-based; settings: HepG2 cells transiently transfected with FXR Gal4 reporter, 18 hours
T2 sequence (Q96RI1 262-486 limits assumed): T1 sequence (Q96RI1 262-486 limits assumed)
Description: FXR Reporter Gene Expression Test
To analyze the effect of testing compounds on FXR-regulated gene expression, we used Promega's dual luciferase assay system (Promega #E1980) to detect the effect of the compounds on the FXR reporter gene in HepG2 hepatoma cell line (ATCC #HB-8065), which was transiently transfected with the FXR Gal4 reporter gene fragment. Specific experimental methods are as follows:
1. HepG2 Cell Culture and Maintenance
Cells were digested and cells with appropriate density were grown in 10 mL complete medium and then cultivated for 24 hours under 37° C., 5% CO2 humidity conditions.
2. Cell planting and transfection. Transfection reagent was Fugene HD (Promega#E231A)
(1) The transfection mixture was prepared according to the following table
(2) The mixture in the tube was vigorously mixed and incubated at room temperature for 15 minutes;
(3) The cells were digested in the culture dish and counted;
(4) The cell suspension was diluted to the desired volume of 600,000/mL (96-well plates 100 μL/well);
(5) The required volume of the transfection mixture was added to the cell suspension, followed by plating at 100 μL/well;
(6) Incubated for 24 hours under 37° C., 5% CO2 humidity conditions.
3. Treatment of the Compound
(1) 10 mM of mother liquor of the compound was prepared and then serially diluted 3 times with DMSO;
(2) 10 μL of compound was added to 90 μL of complete medium (10×);
(3) 5 μL of the solution of the compound (21×) was added to each well;
(4) Incubated for 18 hours under 37° C., 5% CO2 humidity conditions.
The firefly luciferase and the renilla luciferase signal (Promega #E1980) were detected by Promega's dual-luciferase assay system.
(2) Calculating the agonist rate
Agonist rate=(X−Min)/(Max−Min)*100% • X represents the F/R value of each concentration; • Min represents the F/R value without adding compound; • Max represents the F/R value of the reference compound.
(3) EC50 was calculated according to GraphPrism 5.0

Compound	EC50 [1] [nM]	EC50 [2] [nM]
CC[C@H]1[C@@H](O)C2C3CCC([C@H](C)CCC(=O)NOC)[C@@]3(C)CCC2[C@@]2(C)CC[C@@H](O)C[C@@H]12 (stereo partly drawn) [Example 4, (4R)-4-((3R,5S,6R,7R,10S,13R)-6-ethyl-3,7-dihydroxy-10,13-dimethylhexadecahydro-1H-cyclopenta[a]phenanthrene-17-yl)-N-methoxypentanamide]	54	1060
CC[C@H]1[C@@H](O)C2C3CCC([C@H](C)CCC(=O)NC#N)[C@@]3(C)CCC2[C@@]2(C)CC[C@@H](O)C[C@@H]12 (stereo partly drawn) [Example 3, (4R)-N-cyano-4-((3R, 5S, 6R, 7R, 10S, 13R)-6-ethyl-3,7-dihydroxy-10,13-dimethylhexadecahydro-1H-cyclopenta[a]phenanthrene-17-yl)pentanamide]	16	2530
CC[C@@H]1[C@@H]2[C@@H](F)[C@H](O)CC[C@]2(C)C2CC[C@@]3(C)C(CCC3[C@H](C)CCC(=O)O)C2[C@@H]1O (stereo partly drawn) [Example 1, (4R)-4-((3R, 4R, 5S, 6R, 7R, 10R, 13R)-6-ethyl-4-fluoro-3,7-dihydroxy-10,13-dimethylhexadecahydro-1H-cyclopenta[a]phenanthrene-17-yl)pentanoic acid]	214	2600
CC[C@H]1[C@@H](O)C2C3CCC([C@H](C)CCC(=O)NCP(=O)(O)O)[C@@]3(C)CCC2[C@@]2(C)CC[C@@H](O)C[C@@H]12 (stereo partly drawn) [Example 6, (((4R)-4-((3R,5S,6R,7R,10S,13R)-6-ethyl-3,7-dihydroxy-10,13-dimethylhexadecahydro-1H-cyclopenta[a]phenanthrene-17-yl)pentanoylamino)methyl)phosphonic acid]	1270	–
CC[C@H]1[C@@H](O)C2C3CCC([C@H](C)CCC(=O)NOCCO)[C@@]3(C)CCC2[C@@]2(C)CC[C@@H](O)C[C@@H]12 (stereo partly drawn) [Example 8, (4R)-4-((3R, 5S, 6R, 7R, 10S, 13R)-6-ethyl-3,7-dihydroxy-10,13-dimethylhexadecahydro-1H-cyclopenta[a]phenanthrene-17-yl)-N-(2-hydroxyethoxy)pentanamide]	228	3370
CC[C@H]1[C@@H](O)C2C3CCC([C@H](C)CCC(=O)NCS(=O)(=O)O)[C@@]3(C)CCC2[C@@]2(C)CC[C@@H](O)C[C@@H]12 (stereo partly drawn) [Example 5, ((4R)-4-((3R,5S,6R,7R,10S,13R)-6-ethyl-3,7-dihydroxy-10,13-dimethylhexadecahydro-1H-cyclopenta[a]phenanthrene-17-yl)pentanoylamino) methanesulfonic acid]	31	–
C[C@H](CC1SC(=O)NC1=O)C1CCC2C3C(CC[C@@]21C)[C@@]1(C)CC[C@@H](O)C[C@H]1C[C@H]3O (stereo partly drawn) [Example 15-β, 5-((2R)-2-((3R,5 S,7R,10S,13R)-3,7-dihydroxy-10,13-dimethylhexadecahydro-1H-cyclopenta[a]phenanthrene-17-yl)propyl)thiazolidine-2,4-dione]	312	3370
CC[C@H]1[C@@H](O)C2C3CCC([C@H](C)CCC(=O)NO)[C@@]3(C)CCC2[C@@]2(C)CC[C@@H](O)C[C@@H]12 (stereo partly drawn) [Example 2, (4R)-4-((3R,5S,6R,7R,10S,13R)-6-ethyl-3,7-dihydroxy-10,13-dimethylhexadecahydro-1H-cyclopenta[a]phenanthrene-17-yl)-N-hydroxypentanamide]	167	3390
CC[C@H]1[C@@H](O)C2C3CCC([C@H](C)CCc4nnc[nH]4)[C@@]3(C)CCC2[C@@]2(C)CC[C@@H](O)C[C@@H]12 (stereo partly drawn) [Example 11, (3R,5S,6R,7R,10S,13R)-17-((R)-4-(4H-1,2,4-triazol-3-yl)butan-2-yl)-6-ethyl-10,13-dimethylhexadecahydro-1H-cyclopenta[a] phenanthrene-3,7-diphenol]	366	5200
CC[C@H]1[C@@H](O)C2C3CCC([C@H](C)CCc4nnc(C(=O)O)o4)[C@@]3(C)CCC2[C@@]2(C)CC[C@@H](O)C[C@@H]12 (stereo partly drawn) [Example 13, 5-((3R)-3-((3R, 5S, 6R, 7R, 10S,13R)-6-ethyl-3,7-dihydroxy-10,13-dimethylhexadecahydro-1H-cyclopenta[a]phenanthrene-17-yl)butyl) -1,3,4-oxadiazole-2-carboxylic acid]	283	5200
CCOC(=O)c1nnc(CC[C@@H](C)C2CCC3C4C(CC[C@@]32C)[C@@]2(C)CC[C@@H](O)C[C@H]2[C@@H](CC)[C@H]4O)o1 (stereo partly drawn) [Example 13-ii]	70	–
CC[C@H]1[C@@H](O)C2C3CCC([C@H](C)CCc4n[nH]c(=O)o4)[C@@]3(C)CCC2[C@@]2(C)CC[C@@H](O)C[C@@H]12 (stereo partly drawn) [Example 10, 5-((3R)-3-((3R,5S,6R,7R,10S,13R)-6-ethyl-3,7-dihydroxy-10,13-dimethylhexadecane-1H-cyclopenta[a]phenanthrene-17-yl)butyl)-1,3,4-oxadiazol-2 (3H) -one]	61	1400
CC[C@H]1[C@@H](O)C2C3CCC([C@H](C)CCc4noc(=O)[nH]4)[C@@]3(C)CCC2[C@@]2(C)CC[C@@H](O)C[C@@H]12 (stereo partly drawn) [Example 12, 3-((3R)-3-((3R, 5S, 6R, 7R, 10S, 13R)-6-ethyl-3,7-dihydroxy-10,13-dimethylhexadecahydro-1H-cyclopenta[a]phenanthrene-17-yl)butyl)-1,2,4-oxadiazol-5(4H)-one]	52	1360
CC[C@H]1[C@@H](O)C2C3CCC([C@H](C)CC4SC(=O)NC4=O)[C@@]3(C)CCC2[C@@]2(C)CC[C@@H](O)C[C@@H]12 (single isomer, unassigned) [Example 14-α]	13	63
C[C@H](CC1SC(=O)NC1=O)C1CCC2C3C(CC[C@@]21C)[C@@]1(C)CC[C@@H](O)C[C@H]1C[C@H]3O (stereo partly drawn) [Example 15-α, 5-((2R)-2-((3R,5 S,7R,10S,13R)-3,7-dihydroxy-10,13-dimethylhexadecahydro-1H-cyclopenta[a]phenanthrene-17-yl)propyl)thiazolidine-2,4-dione]	143	–
CC[C@H]1[C@@H](O)C2C3CCC([C@H](C)CCC(=O)NCCP(=O)(O)O)[C@@]3(C)CCC2[C@@]2(C)CC[C@@H](O)C[C@@H]12 (stereo partly drawn) [Example 7, (2-((4R)-4-((3R,5 S,6R,7R,10S,13R)-6-ethyl-3,7-dihydroxy-10,13-dimethylhexadecahydro-1H-cyclopenta[a]phenanthrene-17-yl)pentanoylamino)ethyl) phosphonic acid]	552	–
